Values quoted from earlier work, collected in patent US4927638A, “Etoposide solutions” (Bristol-Myers Company, priority 1988, dated 1990).

Key:
[1] = with water, ethanol, propylene glycol, isopropyl myristate, diethyl ether, acetone, corn oil, cottonseed oil, etc.
[2] = background statement
[3] = oral (capsules or solution), of that found after intravenous administration; patients

miscibility [1] | Structure (SMILES) | solubility in water [2] | oral bioavailability [3]
miscible | CO[C@H]1CO[C@H]2[C@@H]1OC[C@H]2OC [Dimethylisosorbide, dimethylisosorbide] | – | –
– | COc1cc([C@@H]2c3cc4c(cc3[C@@H](O[C@@H]3O[C@@H]5CO[C@@H](C)O[C@H]5[C@H](O)[C@H]3O)[C@H]3COC(=O)[C@H]23)OCO4)cc(OC)c1O [Etoposide, 4'-demethylepipodophyllotoxin-9-(4,6-O(R)-ethylidine-β-D-glucopyranoside)] | only sparingly soluble | about 50%
